Results: PMC12475274, “Harnessing indole scaffolds to identify small-molecule IRE1α inhibitors modulating XBP1 mRNA splicing” (Nature Communications, 2025)
Where “and” joins values, the source holds several entries; their conditions need not be identical. Equal values may be shown once. Entries after “also recorded” stand apart in the source; their conditions may differ.

Columns and labels:
[1] = molecular target: T1, p-IRE1α dimerization and oligomerization (Homo sapiens, UniProt O75460); experiment: DSS cross-linking assay with mass photometry; settings: 100 μM compound, DSS crosslinking
T1 construct: Human IRE1α kinase and RNase domain (residues 547–977) was subcloned into pLIB plasmid; His tag (with TEV cleavage site) (N, cleaved yes); made in house; host or cells: Sf9 insect cells, baculovirus (Bac-to-Bac)
T1 sequence (O75460 547-977): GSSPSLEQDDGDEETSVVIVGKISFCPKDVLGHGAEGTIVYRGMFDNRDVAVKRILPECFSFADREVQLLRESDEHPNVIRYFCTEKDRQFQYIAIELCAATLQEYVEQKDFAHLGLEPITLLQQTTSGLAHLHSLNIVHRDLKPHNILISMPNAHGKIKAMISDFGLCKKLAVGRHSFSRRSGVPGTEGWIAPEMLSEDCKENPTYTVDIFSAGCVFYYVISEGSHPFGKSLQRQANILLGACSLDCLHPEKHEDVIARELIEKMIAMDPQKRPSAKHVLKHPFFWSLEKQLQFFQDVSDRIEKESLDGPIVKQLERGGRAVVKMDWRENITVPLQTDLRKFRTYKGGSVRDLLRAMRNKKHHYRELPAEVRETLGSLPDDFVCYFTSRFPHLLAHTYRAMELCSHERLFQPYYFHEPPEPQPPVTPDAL
Procedure: Phosphorylated IRE1α (p-IRE1α) and compounds were incubated 30 min at room temperature, with a final concentration of 2 μM p-IRE1α and 100 μM of the indicated compound, in a buffer containing 20 mM HEPES, pH 7.5, 50 mM KOAc, 1 mM MgOAc2, 1 mM DTT, 0.05% v/v TritonX-100, in a total reaction volume of 20 μL. After incubation, DSS (disuccinimidyl suberate, Thermo Fisher, A39267) was added to the reaction at a final concentration of 250 μM to induce crosslinking at room temperature for 1 h. Tris (pH 7.5) was added to a final concentration of 50 mM to stop the reaction. Samples were further measured with a mass photometry instrument (Refeyn Ltd). The PBS buffer was used for the mass photometry measurement. The instrument was calibrated with BSA and TG protein mixture in PBS. Samples were diluted to a protein concentration of 100 nM with buffer before measurement. Then, 18 μL PBS buffer was added to the center of the gasket on the coverslips to check and find the focus. Afterward, 2 μL of the diluted sample was added, mixed, and measured. Data were analyzed using Discover MP software, for each sample, results from 3 individual measurements were merged.

[2] = molecular target: T2, p-IRE1α (Homo sapiens, UniProt O75460); experiment: Gel-based RNA-cleavage assay; type: biochemical
T2 construct: Human IRE1α kinase and RNase domain (residues 547–977) was subcloned into pLIB plasmid; His tag (with TEV cleavage site) (N, cleaved yes); made in house; host or cells: Sf9 insect cells, baculovirus (Bac-to-Bac)
T2 sequence (O75460 547-977): as above
Procedure: Purified p-IRE1α with a final concentration of 10 nM was preincubated with the indicated compounds for 30 min at room temperature, then 50 nM FAM and BHQ-labeled XBP1 substrate were added to the reaction. The reaction was further incubated for 45 min at room temperature and then mixed with 6× TBE loading dye (45% H2O, 40 % glycerol, 15% 10× TBE, 0.1% bromphenol blue). 5 μL sample was loaded to 15% pre-runed urea-PAGE, and the gel was run in pre-warmed (~60 °C) 1× TBE buffer buffer in the dark. The gel fluorescence was detected and imaged using the ChemiDoc MP imaging system (Bio-Rad).

[3] = tested on: HT-29 cells; experiment: Cell viability assay (CCK-8), HT-29; type: cell-based, human; settings: HT-29; for inhibition at 50 µM: Homo sapiens, read-out: antiproliferation, inhibition at highest tested concentration
Procedure: (§1) Cells were collected and seeded into 96-well plates at a density of 2000–4000 cells per well and cultured overnight to allow cells to adhere. After adherence, cells were treated with the indicated compounds for 72 h. Then 20 μL CCK-8 solution (Vazyme, A311) was added into each well and incubated at 37 °C for 2–4 h. Absorbance was detected at a wavelength of 450 nm using a TECAN plate reader. Cell viability was calculated with the equation: Cell viability (%) = 100(Absorbance of treated cell - Absorbance of Blank control)/ (Absorbance of DMSO-treated cells - Absorbance of Blank control); Blank control: medium and CCK-8 solution, no cells.

[4] = tested on: XBP1 mRNA splicing in A549 cells; experiment: RT-qPCR of ER stress-induced XBP1 mRNA splicing, A549; type: cell-based, human; settings: for Relative XBP1s/Actin: Fig. 7a, 0.5μg/mL Tm, individual replicates
Procedure: A549 cells, HCT 116 cells, and HT-29 cells were collected and seeded in 6-well plates at a density of 5 × 10^5 cells per well and cultured overnight to attach, then treated with compound or DMSO for 2 h, then 0.5 μg/mL final concentration of tunicamycin (Tm, MP Biomedi, 0215002805) were added to induce the ER stress for 2 h. After treatment, total RNA was purified using an RNeasy mini kit (Qiagen, 74106). 500 ng of total RNA was used for reverse transcription using the High-Capacity cDNA Reverse Transcription Kits (Thermo Fisher, 4368814). cDNA was diluted 1: 5 using RNase-free water, and 1 μL CDNA was used for each qPCR reaction. The qPCR was performed using PowerUp™ SYBR™ Green Master Mix (Thermo Fisher, A25742) with 10 µL reaction volume using Bio-Rad CFX96 Real-Time PCR Detection System following the standard cycling mode (primer Tm ≥ 60 °C) on the manufacturer’s protocol. Data was analyzed using the 2^- ΔΔCt method. The primers used are listed in Supplementary Table S3. The inhibition % was calculated by using the equation: inhibition% = 100× (normalized Tm control - normalized of the sample)/(normalized Tm control - normalized DMSO control). Tm control: Cells treated with tunicamycin; DMSO control: Cells treated with DMSO only.

[5] = tested on: HCT 116 cells; experiment: Cell viability assay (CCK-8), HCT 116; type: cell-based, human; settings: HCT 116; for inhibition at 50 µM: Homo sapiens, read-out: antiproliferation, inhibition at highest tested concentration
Procedure: as §1

[6] = molecular target: T3, p-IRE1α dimerization (Homo sapiens, UniProt O75460); experiment: SDS-PAGE gel-based crosslinking assay
T3 construct: Human IRE1α kinase and RNase domain (residues 547–977) was subcloned into pLIB plasmid; His tag (with TEV cleavage site) (N, cleaved yes); made in house; host or cells: Sf9 insect cells, baculovirus (Bac-to-Bac)
T3 sequence (O75460 547-977): as above
Text: sustained inhibition effect.”
Fig. R1. (A) Gel-based cleavage assay using the same condition as FRET assay. (B) Fig.4g of current manuscript, IA107 binding affinity towards p-IRE1α in MST assay.
-Using Refeyn mass photometry of cross-linked IRE1α complexes, the authors observe that […]
However, this finding appears inconsistent with their crystallographic data showing separated RNase domains in dimeric IRE1. Since both kinase and RNase domain interactions contribute to the IRE1 dimer interface, one would expect at least some reduction in dimerization levels. It is also a bit worrying that the authors observe that one of the control compounds tested (G1749) also blocks dimerization/oligomerization in their assay (Extended Data Fig. 6d and 6e), as this compound was found not to affect the monomer/dimer equilibrium of IRE1 in PMID: 33318494.
We appreciate the Reviewer’s comments regarding the dimerization experiments. Our crystal […]
remain in the same dimer interaction interface as the apo p-IRE1α dimer. […]
observe dimerization inhibition by IA107 in the mass photometry assay nor SDS-PAGE gel-based crosslinking assay (Fig. R2A). […]
Fig. R2. […] Analyzed using the PDBePISA web server (PMID: 17681537). […]
inhibits IRE1α's RNase activity (measured as spliced XBP1 levels) in cells through engagement of IRE1α. […]

Row | SMILES | effect on p-IRE1α dimerization/oligomerization [1] | inhibition of p-IRE1α RNase activity in gel-based cleavage assay [2] | cytotoxicity [3] | inhibition at 50 µM [3] | cytotoxicity [5] | inhibition at 50 µM [5] | effect on p-IRE1α dimerization [6] | further results
1 | CCOC(=O)Nc1cccc2c(Oc3ncccc3-c3ccnc(N[C@H]4CCCNC4)n3)c(C)ccc12 [Compound G1749, reference compound] | inhibited the dimerization; also recorded: interfere with the dimerization | – | – | – | – | – | – | –
2 | COc1ccc2c(c1)c(CCC(=O)O)c(C)n2C(=O)c1ccc(Cl)cc1 [IA01] | – | concentration-dependently inhibited | – | – | – | – | – | –
3 | COc1ccc2c(c1)c(CCC(=O)O)c(C)n2C(=O)c1ccccc1 [IA64] | – | inhibited p-IRE1α activity; also recorded: concentration-dependently inhibited | – | – | – | – | – | –
4 | Cc1c(CCC(=O)O)c2cc(Br)ccc2n1C(=O)c1ccccc1 [IA107] | did not inhibit the dimerization and oligomerization; also recorded: did not affect the dimerization and oligomerization | concentration-dependently inhibited | did not show cytotoxicity | < 30% | did not show cytotoxicity | < 30% | did not | inhibition of ER stress-induced XBP1 mRNA splicing ([4]; A549 cells, 2 h pre-treatment, 2 h tunicamycin): concentration-dependently inhibited; Relative XBP1s/Actin ([4]; 5 μM): 3.514 and 3.6054 and 3.452 and 3.1438; Relative XBP1s/Actin ([4]; 10 μM): 3.066 and 2.696 and 2.897 and 2.792; Relative XBP1s/Actin ([4]; 25 μM): 2.48 and 2.329 and 2.338 and 2.263; Relative XBP1s/Actin ([4]; 50 μM): 1.745 and 1.521 and 1.514 and 1.455
5 | CCOC(=O)CCc1c(C)n(C(=O)c2ccccc2)c2ccc(Br)cc12 [IAPD1] | – | – | did not show cytotoxicity | < 30% | did not show cytotoxicity | < 30% | – | IC50 ([4]; Homo sapiens, A549 cells, tunicamycin, read-out: cellular IC50, ER stress-induced XBP1 mRNA splicing): 180 nM; improvement of the cellular activity in inhibiting XBP1 mRNA splicing ([4]; prodrug versus IA107): 50 fold
6 | Cc1ccc2c(NS(=O)(=O)c3ccccc3Cl)cccc2c1Oc1ncccc1-c1ccnc(N[C@H]2CCCNC2)n1 [KIRA8] | interfere with the dimerization; also recorded: inhibited dimerization | – | – | – | – | – | inhibited dimerization | –
